In publication PMC9728511, “Direct formation and site-selective elaboration of methionine sulfoximine in polypeptides” (Chemical Science, 2022):

System: glutamine synthetase (GS)
Assay: glutamine synthetase inhibition assay (glutamine synthetase activity assay kit, Abcam)
Format: biochemical
Settings: for Inhibition (%) of glutamine synthetase, Assay 1: Table S4, assay 1 of 3; for Inhibition (%) of glutamine synthetase, Assay 1 / Inhibition (%) of glutamine synthetase, Assay 2 / Inhibition (%) of glutamine synthetase, Assay 3: 1 mM inhibitor final concn, enzyme pre-incubated with inhibitor 37 °C 10 min, colorimetric ADP detection, A570 (average of 3 readings), background subtracted, vs enzyme control; for Inhibition (%) of glutamine synthetase, Assay 1 / Inhibition (%) of glutamine synthetase, Assay 2 / Inhibition (%) of glutamine synthetase, Assay 3 / Average inhibition (%) of glutamine synthetase: reaction 37 °C 60 min; for Inhibition (%) of glutamine synthetase, Assay 2: Table S5, assay 2 of 3; for Inhibition (%) of glutamine synthetase, Assay 3: Table S6, assay 3 of 3; for Average inhibition (%) of glutamine synthetase: Table S7, average of assay 1, 2 and 3 (mean of 3 independent experiments), 1 mM inhibitor, pre-incubation 37 °C 10 min, A570; for inhibitory activity on glutamine synthetase compared with MSO: screen at 1 mM inhibitor concentration (Fig. 4), comparison in words
Protocol: Assays were performed at 1 mM inhibitor concentration using a glutamine synthetase activity assay kit (Abcam).
Procedure f or the glutamine synthetase inhibition assay (Figure 4)
In this assay, glutamine synthetase catalyzesthe transformation from g lutamate and ATP t o g lutamine and ADP. ADP in the subsequent reaction, in presence of ADP converter, ADP d eveloper and ADP pr obe , forms a colorimetric product that is measured at absorbance 570 nm.
1. Stock solutions of glutamine synthetase, ATP, ADP converter, and ADP developer were prepared according to the protocol by Abcam: https://www.abcam.com/ps/products/284/ab284572/documents/Glutamine-Synthetase- Activity-Assay- […]
GS assay buffer, glutamate, and ADP probe were used as supplied.
2. Glutamine synthetase (2 µL ) was pre- incubated with methionine sulfoximine (MSO) (2 µL, 10 mM, 1 mM final concn) and methionine sulfoximine peptides 1b -8b (2 µL, 10 mM, 1 mM final concn) at 37 °C for 10 min, protected from light. For enzyme control, GS assay buffer (2 µL ) was used instead of MSO or peptides 1b -8b. For background control, GS assay buffer (4 µL) without enzyme was used.
3. Substrate mix was prepared by mixing GS assay buffer (96 µL ), glutamate (24 µL ), and ATP (24 µL ).
The resulting substrate mix (12 µL) was added to each sample.
4. ADP reactio n mix was prepared by mixing GS assay buffer (42 µL), ADP probe (6 µL), ADP converter (6 µL), and ADP developer (6 µL ). The resulting ADP reaction mix (4 µL ) was added to each sample. The total reaction volume for each sample is 20 µL.
5. After incubation of the reaction mixture at 37 °C for 60 mi n , the absorbance at 570 nm (A570) was measured on a Thermo Scientific NanoDrop 2000c spectrophotometer. For each sample, A570 was measure […]
6. The background control reading was subtracted from test sample readings and enzyme control readings.
7. Inhibition of glutamine synthetase was det er mi ned by comparing A570 (test sample) and A570 ( enzyme
Percentage inhibition = A570 (enzyme control)−A570 (test sample)A570 (enzyme control) × 100%
8. The assay was repeated for 3 times and the percentage inhibition values are me a n ± S D of 3 independent

## CS(=N)(=O)CC[C@H](N)C(=O)O (some centres unmarked) [MSO, methionine sulfoximine]
  Inhibition (%) of glutamine synthetase, Assay 1: 18.1%
  Inhibition (%) of glutamine synthetase, Assay 2: 18.8%
  Inhibition (%) of glutamine synthetase, Assay 3: 19.2%
  Average inhibition (%) of glutamine synthetase: 18.7%

## Ac-FPQSGM-NH2 [5b]
  Inhibition (%) of glutamine synthetase, Assay 1: 9.5%
  Inhibition (%) of glutamine synthetase, Assay 2: 13.0%
  Inhibition (%) of glutamine synthetase, Assay 3: 12.1%
  Average inhibition (%) of glutamine synthetase: 11.5%

## Ac-MGDFQ-NH2 [1b]
  Inhibition (%) of glutamine synthetase, Assay 1: 16.8%
  Inhibition (%) of glutamine synthetase, Assay 2: 17.2%
  Inhibition (%) of glutamine synthetase, Assay 3: 19.0%
  Average inhibition (%) of glutamine synthetase: 17.7%

## Ac-MGKFQ-NH2 [2b]
  Inhibition (%) of glutamine synthetase, Assay 1: 29.2%
  Inhibition (%) of glutamine synthetase, Assay 2: 28.6%
  Inhibition (%) of glutamine synthetase, Assay 3: 33.0%
  Average inhibition (%) of glutamine synthetase: 30.3%
  inhibitory activity on glutamine synthetase compared with MSO: higher than that observed for MSO

## Ac-MGRFTINP-NH2 [6b]
  Inhibition (%) of glutamine synthetase, Assay 1: 28.6%
  Inhibition (%) of glutamine synthetase, Assay 2: 26.2%
  Inhibition (%) of glutamine synthetase, Assay 3: 24.1%
  Average inhibition (%) of glutamine synthetase: 26.3%
  inhibitory activity on glutamine synthetase compared with MSO: higher than that observed for MSO

## Ac-RPKPQQFFGLM-NH2 (substance P) [7b]
  Inhibition (%) of glutamine synthetase, Assay 1: 1.7%
  Inhibition (%) of glutamine synthetase, Assay 2: 3.1%
  Inhibition (%) of glutamine synthetase, Assay 3: 3.7%
  Average inhibition (%) of glutamine synthetase: 2.8%

## Ac-SYSMEHFRWGKPV-NH2 (α-MSH) [8b]
  Inhibition (%) of glutamine synthetase, Assay 1: 35.3%
  Inhibition (%) of glutamine synthetase, Assay 2: 33.6%
  Inhibition (%) of glutamine synthetase, Assay 3: 36.1%
  Average inhibition (%) of glutamine synthetase: 35.0%
  inhibitory activity on glutamine synthetase compared with MSO: higher than that observed for MSO

## Ac-VGMSWP-NH2 [4b]
  Inhibition (%) of glutamine synthetase, Assay 1: 13.3%
  Inhibition (%) of glutamine synthetase, Assay 2: 15.5%
  Inhibition (%) of glutamine synthetase, Assay 3: 14.3%
  Average inhibition (%) of glutamine synthetase: 14.4%

## Ac-YGMLNP-NH2 [3b]
  Inhibition (%) of glutamine synthetase, Assay 1: 0.9%
  Inhibition (%) of glutamine synthetase, Assay 2: 1.0%
  Inhibition (%) of glutamine synthetase, Assay 3: 0.8%
